# Results taken from patent US20090180958A1, “Diagnostic and therapeutic agents” (Karyon-CTT Ltd., priority 2005, published 2009).
# Key:
# NSCLC cell line A549 = settings: wells coated at 30 μg/ml, 75000 cells, 30 minutes at 37° C.
# Protocol: (§1) Preparation of plates for assays. Wells of Reacti-Bind Maleimide activated clear strip plate (Pierce, Prod#. 15150) were coated with targeting agents of this invention at a concentration of 30 μg/ml. The incubation was carried out of overnight at 20° C. The binding buffer containing unbound peptide was removed from the wells.
# (§2) The wells were blocked with blocking buffer (1.0% BSA, 0.05% Tween20 in phosphate buffer saline (PBS) pH 7.0. PBS was prepared as follows: […] of NaCl, 1 g of KCl, 7 g of Na2HPO4×2H2O and 1 g of KH2PO4 were dissolved to 1000 ml of deionized H2O). Blank wells as controls were prepared by treating empty wells with blocking buffer. The plates were incubated 1 hour 30 min at 20° C.
# (§3) After incubation the plate was washed three times with PBS. Cell binding assays. 75000 cells in volume of 150 μl of medium were added into coated wells and were incubated for 30 minutes at 37° C. After cell binding, the wells were washed with PBS for 30 minutes. Detection of targeting agent bound cells were based on the MTT assay (described in detail in Example 23, Cytotoxicity). 10 μl of MTT reagent and 90 μl of medium were added to the wells. The plate was incubated for three hours at +37° C. After the incubation, 100 μl of lysis buffer was added to the wells and let to incubated o/n 37° C. On following day the absorbance of plate was measured at 560 nm with ELISA-reader (ThermoLabsystems, multiskan EX).
# (§4) Cell lines NCI-H23, NCI-H520, A549, HeLa and NIH3T3 (described in Example 18) and targeting agents HP199, HP201 and HP205 (described in Examples 5, 6, 17) were used in the cell binding.
# (§5) The results are shown as measured absorbance at 560 nm.
# NSCLC cell line NCI-H520 = settings: wells coated at 30 μg/ml, 75000 cells, 30 minutes at 37° C.
# Protocol: as §1, §2, §3, §4, §5
# [1] = test system: PASMC, human primary pulmonary artery smooth muscle cell line; settings: wells coated at 30 μg/ml; 75000 cells, 30 minutes at 37° C.; control cell line PASMC
# Protocol: as §1, §2, §3, §4, §5
# NSCLC cell line NCI-H23 = settings: wells coated at 30 μg/ml, 75000 cells, 30 minutes at 37° C.
# Protocol: as §1, §2, §3, §4, §5
# [2] = test system: NIH3T3, mouse fibroblast cell line; settings: wells coated at 30 μg/ml; 75000 cells, 30 minutes at 37° C.; control cell line NIH3T3
# Protocol: as §1, §2, §3, §4, §5
# human lung tumor tissue = settings: enriched peptide sequences collected from ex vivo panning rounds four to six
# Text: Phage display libraries. Standard procedures according to Smith and Scott (1993) were used. Phage display libraries used for screening of clinical samples were cloned in fUSE5 vectors and were of the structure X7 and X10, thus they were linear containing seven or ten random amino acids. The libraries were used separately or as a mixture. The E. coli strain K91kan was used as host for phage amplification.
# Subtractional panning. Bio-panning was started with depletion of phage clones binding to normal lung. Normal lung tissue taken from surgical lung resection, removed during dissection of tumor, was placed in ice cold DMEM (Dulbecco's medium) containing protease inhibitors (PI); 10 mM PMSF ([…]), Aprotinin (10 mg/ml) Leupeptin (10 mg/ml). Tissue samples were minced with a razor blade in a small cell culture plate in 1 ml of DMEM-PI. The samples were transferred to an eppendorf tube and washed with 1 ml DMEM-PI.
# Samples were centrifuged at 4000 rpm for 5 min and were then incubated with 10^10 transforming units (TU) of phage (from one or more peptide libraries) in 1 ml DMEM-PI at 25° C. for 45 min. After this the samples were washed three times with DMEM-PI containing 1% BSA (bovine serum albumin).
# Phage display on clinical tumor samples. Tissue samples were surgically removed from primary tumors of non-small cell lung cancer patients and placed in ice DMEM-PI. Part of sample was taken for pathological examination. The type and nature of the tumor samples were first verified as being NSCLC. After that, specification of subtype of NSCLC and its stage was done by pathologists.
# Tissue samples were minced with a razor blade in a small cell culture plate in 1 ml of DMEM containing protease inhibitors. The samples were transferred to an eppendorf tube and washed with 1 ml DMEM-PI.
# Samples were centrifuged at 4000 rpm for 5 min and were then incubated with 10^10 TU of phage (from one or more peptide libraries) in iml DMEM-PI at 25° C. for 15 min. After this the samples were washed three times with DMEM-PI containing 1% BSA (bovine serum albumin).
# 1 ml K91kan bacteria, OD600: 1-1.5, in LB containing 100 μg/ml kanamycin (kan) were infected with the washed pellet containing selectively attached phage particles at 25° C. for 25 min. After infection volume was increased to 2 ml with LB containing 100 μg/ml kan.
# Then infected bacteria were plated on LB agar plates containing 40 μg/ml tetracycline (tet) as follows: Two parallel plates of three dilutions (1:50, 1:500, 1:5000) and the rest of the above K91kan culture in 200 μl aliquots. The plates were incubated overnight at +37° C.
# The following day 24-48 colonies were picked from the LBtet plates into 96-well micro-plates for sequencing of the phage DNA. Alternatively the clones were stored for later analysis at −20° C.
# Monitoring of enrichment of peptides.
# A549 cells = experiment: Fluorescent targeting agent staining of fixed cells; assay type: cell-based, human; settings: 50 μg/ml in PBS, pH 7.4; methanol-fixed A549 cells
# Protocol: (§8) A549 cells and HeLa cells (described in Example 18) were grown on glass slides, washed with PBS and then fixed with methanol. The fluorescent targeting agent F5M-A49 (described in Example 10) was used to stain these cells as follows: Cells were first blocked with blocking buffer (1.0% BSA, 0.05% Tween20 in PBS, pH 7.4) for one hour at 20° C. The cells on the glass slides were incubated with 20 μl of F5M-A49 targeting agent (50 μg/ml in PBS, pH 7.4). As control, binding of F5M-A49 was competed with 20 μl of IS257 targeting unit (free peptide described in Example 3), 500 μg/ml in PBS, pH 7.4) prior to addition of the targeting agent. As negative controls, cells not incubated with any targeting agent were used. After the staining the cells were mounted on object glasses with mountex (Histolab Products Ltd). After this cells were viewed under a fluorescent microscope (Carl Zeiss Microscopy, Jena, Germany).
# HeLa cells = settings: 50 μg/ml in PBS, pH 7.4; methanol-fixed HeLa cells
# Protocol: as §8
# [3] = test system: A549, NCI-H23, NCI-H520, NCI-H460, C8161/M1, HeLa, NIH3T3, E10V, SVEC4-10 cell lines; experiment: Cytotoxicity assay (MTT); assay type: cell-based; settings: 7.5 μg/ml, after 1 h treatment; positive control
# Protocol: In this assay cell lines were exposed to two different concentrations (50 μg/and 500 μg/ml) of IS257 targeting unit (described in Example 3) for two to three days to test the toxicity of the peptides. The measurement of cell viability was done with MTT (Thiazolyl blue, Sigma M-5655 ) tetrazolium salt. MTT is cleaved to water-insoluble formazan dye by the “succinate-tetrazolium reductase” system which is active only in viable cells. After formazan was solubilized by 10% SDS-0.01 M HCl, it was quantified in an ELISA spectrometer (ThermoLabsystems Multiscan EX) at 560 nm. CuSAO2 [trans-bis(salicylaldoximato) copper(II)] (Elo HO, Lumme PO., 1985) 7.5 μg/ml was used as a positive control for 100% toxicity.
# Procedure. Cells were trypsinized from the cell culture dish (ø9 cm) with 1 ml of TE for 1-5 minutes and moved to a 50 ml Falcon tube. […]
# Then 40 μl of IS257 targeting unit in appropriate medium were added to the wells in two concentrations, so that final concentrations were 50 μg/ml and 500 μg/ml, and the volume of the wells was raised back to 100 μl. […] The next day the cell morphology was analyzed with a microscope. […]
# The next day, the MTT assay described above was performed. The viable count (v.c.) was calculated as:
# Average toxicated cell absorbance−Average DMEM absorbance=Viable count Average living cell absorbance−Average DMEM absorbance […]
# PASMC = settings: 5 pM, 30 min at 37° C.; control cell line PASMC
# Protocol: (§6) 5000 cells, A549, NCI-H23, NCI-H520, NCI-H460, and control cells PASMC and HeLa (described in Example 18), are grown in multi-well plates, according to the conditions described in Example 18.
# (§7) After 30 min of incubation cells are washed 5 times with PBS. PBS is removed and cells are lysed by shaking in Inducer Solution (Perkin-Elmer Ltd) for 15 min. After this, fluorescence is measured by time resolved fluorescence using a Victor III fluorometer (Perkin-Elmer Ltd).
# HeLa = settings: 5 pM, 30 min at 37° C.; control cell line HeLa
# Protocol: as §6, §7
compound,measurement,setting,value
Ac-ARRPKLD-GAAG-PEG-G3-EAT [HP201],binding of cells to immobilized targeting agent (absorbance at 560 nm),NSCLC cell line A549,bind selectively
same,binding of cells to immobilized targeting agent (absorbance at 560 nm),NSCLC cell line NCI-H520,bind selectively
same,binding of cells to immobilized targeting agent (absorbance at 560 nm),[1],do not
same,binding of cells to immobilized targeting agent (absorbance at 560 nm),NSCLC cell line NCI-H23,bind selectively
same,binding of cells to immobilized targeting agent (absorbance at 560 nm),[2],do not
"H-Ala-Asp-Gly-Ala-asp-Pro-Leu-Lys-Arg-Ala-Arg-Gly-Ala-Ala-Gly-NH-CH2CH2—O—CH2CH2—O—CH2CH2—O—CH2—C(O)-Gly3-NHCH2CH2SH [HP205, reference compound]",binding of cells to immobilized targeting agent (absorbance at 560 nm),NSCLC cell line A549,do not bind
same,binding of cells to immobilized targeting agent (absorbance at 560 nm),NSCLC cell line NCI-H520,do not bind
same,binding of cells to immobilized targeting agent (absorbance at 560 nm),NSCLC cell line NCI-H23,do not bind
SRAPNSVQHD,Frequency,human lung tumor tissue,2
ARLPQVELSA,Frequency,human lung tumor tissue,3
SRNPGLLTVR,Frequency,human lung tumor tissue,2
SRAPVAP,Frequency,human lung tumor tissue,2
CH3C(O)-Ala-Arg-Arg-Pro-Lys-Leu-Asp-Gly-Ala-Ala-Gly-NH—(CH2)3—(O—CH2CH2)3—CH2—NH—C(O)CH2CH2—C(O)—NHCH2CH2S—C2H3(COOH)—C(O)—NH—(C20H11O5) [F5M-A49],staining of cells (fluorescent microscope),A549 cells,strong staining
same,staining of cells (fluorescent microscope),HeLa cells,no staining
ARRPKLD [Ala-Arg-Arg-Pro-Lys-Leu-Asp],Frequency,human lung tumor tissue,22
Ala-Asp-Gly-Ala-Ala-Arg-Arg-Pro-Lys-Leu-Asp-Gly-Ala-Ala-Gly-NH—CH2CH2—O—CH2CH2—O—CH2CH2—O—CH2—C(O)-Gly-Gly-Gly-NHCH2CH2SH [HP199],binding of cells to immobilized targeting agent (absorbance at 560 nm),NSCLC cell line A549,bind selectively
same,binding of cells to immobilized targeting agent (absorbance at 560 nm),NSCLC cell line NCI-H520,bind selectively
same,binding of cells to immobilized targeting agent (absorbance at 560 nm),[1],do not
same,binding of cells to immobilized targeting agent (absorbance at 560 nm),NSCLC cell line NCI-H23,bind selectively
same,binding of cells to immobilized targeting agent (absorbance at 560 nm),[2],do not
ARAPGVMPTT,Frequency,human lung tumor tissue,2
SRLPSAGTFQ,Frequency,human lung tumor tissue,2
"[Cu+2].[O-]c1ccccc1C=NO.[O-]c1ccccc1C=NO [CuSAO2, trans-bis(salicylaldoximato) copper(II), reference compound]",cell killing,[3],100%
ARMPPRS,Frequency,human lung tumor tissue,2
CH3C(O)-Ala-Arg-Arg-Pro-Lys-Leu-Asp-Gly-Ala-NHCH2CH2S-p-CH2CONH-benzyl-DTPA europium chelate [A48-Eu],binding of targeting agent to cells,PASMC,no binding
same,binding of targeting agent to cells,HeLa,no binding
ARPPKGVNWT,Frequency,human lung tumor tissue,3
